For assay [1], the system named is PANC-1 xenograft tumors. Description: Systemic LipF-p53 plus chemotherapy, xenograft growth. Format: in vivo, athymic nude mice. The note with it: single agent only. An excerpt:
Xenograft tumors of pancreatic cancer cell line PANC-1 were induced by the subcutaneous inoculation of greater than 1×10^7 cells onto athymic nude mice. When the tumors reached approximately 500-1000 mm^3, the tumors were excised and minced into small (<1 mm) pieces. These freshly prepared tumor pieces (suspended in PBS) were inoculated subcutaneously (using a 14 g needle) onto the flanks of athymic nude mice. When the tumors reached an average of 100 mm^3 in volume, treatment was begun. The animals received, via intravenous injection, LipF(B)-p53. This liposome complex was administered twice/week to a total of 7 injections. The chemotherapeutic agent gemcitabine was also administered intraperitoneally at a dose of either 60mg/kg or 120mg/kg twice weekly. A total of 13 gemcitabine injections were administered. One group of animals also received twice weekly intratumoral injections of LipF(B)-p53 (a total 6) in addition to the intravenous administration of the LipF(B)-p53 and gemcitabine. […] This was particularly evident in the group that received both i.v. and i.t injections.

For assay [2], the system named is U87. Description: Chemosensitization, XTT cell proliferation assay. The class given is cell-based. The note with it: Homo sapiens, U-87 MG, drug alone on untransfected U87 cells. As for the experimental part:
(§1) This example summarizes part of the in vitro p53-mediated chemosensitization experiments (XTT assays) performed on the cell lines for which transfection with transferrin-coupled or folate-coupled liposomes is described in Example 17. […] The chemosensitization effect is dependent upon the liposome used and the p53 DNA dose. VIN=vinblastine; DXR=doxorubicin; CDDP=cisplatin. Fold Sensitization is calculated from the individual IC50 values. DNA dose=ug of DNA applied per well (approximately 1×10^4 cells/well in a 96-well plate).
(§2) The ability of the LipF(B)-delivered AS-HER-2 to sensitize MDA-MB-435, JSQ-3, DU145 and U87 (Human glioblastoma) cells to chemotherapeutic agents was evaluated. Sensitivity was determined using the XTT cell proliferation assay. […] Comparison of the cells treated with LipF(B) mediated AS-HER-2, to that of cells treated with a LipF(B) control oligonucleotide (SC) indicated a greater than 30 fold increase in sensitization of 435 cells to taxotere. In contrast, only a 2.5 fold level of sensitization was evident after transfection with AS-HER-2 using the commercial Lipofectin (Life Technologies, Inc.). Treatment of JSQ-3 cells with LipF(E)-AS-HER-2 increased the effect of docetaxel almost 25 fold. […] A two fold increase in sensitization of DU145 cells to docetaxel was seen after treatment with LipF(E)-AS-HER-2.
(Tetrazolium dyes change colour on reduction, which living cells bring about.)

Assay [3] concerns PANC-1. Description: Chemosensitization, XTT cell proliferation assay. Format: cell-based. The note with it: Homo sapiens, PANC-1, drug alone on untransfected PANC-1 cells. As for the experimental part: as §1
Here also a greater than 70 fold increase in drug sensitivity was induced by treatment with LipF(B)-AS-RAS.

Assay [4] deals with MDA-MB-231. Description: Chemosensitization, XTT cell proliferation assay. The note with it: Homo sapiens; drug alone on untransfected MDA-MB-231 cells. The class given is cell-based. As for the experimental part: as §1
In assay [5] the test system is MDA-MB-435 mammary fat pad xenograft tumors. Briefly: Chemosensitization of xenograft tumors in vivo. Set-up: species or system athymic nude mice. The note with it: AS-HER-2 only or docetaxel only. As for the experimental part:
Mice bearing subcutaneous mammary fat pad MDA-MB-435 tumors of approximately 100 mm^3 were i.v. injected via the tail vein with LipF(C)-p53 every 3-4 days for a total of eight injections. Doxorubicin (Dxr) (10 mg/kg) was injected i.v. weekly for 4 weeks. […] In a second experiment, two separate liposome compositions [LipF(E) and LipF(C)] were employed.
The ability of the LipF(B)-AS-HER-2 to target and sensitize preexisting MDA-MB-435 xenograft tumors to the chemotherapeutic agent docetaxel in vivo was examined by assessing tumor regression as well as tumor growth inhibition. Female athymic (Ncr nu/nu) mice carrying MDA-MB-435 mammary fat pad xenograft tumors of approximately 70 mm^3 were intravenously injected, via the tail vein, with LipF(B)-AS-HER-2 (at approximately 0.6 mM of oligonucleotides) every other day to a total of 11 injections. A total of 11 intravenous doses of docetaxel (approximately 20 mg/kg/dose every other day) were also administered to the animals. […] Therefore, the systemically delivered, targeted liposome delivery of antisense oligonucleotides, in this case AS-HER-2, was clearly able to sensitize these tumors to the chemotherapeutic agent, strongly inhibiting tumor growth almost three weeks after the end of treatment.

Assay [6] has as its system DU145 xenograft tumors. Description: Systemic LipF-p53 plus chemotherapy, xenograft growth. The class given is in vivo, mice. The note with it: complex twice/week, 5 injections, or docetaxel 10 mg/kg, alone. As for the experimental part:
Mice bearing subcutaneous DU145 xenograft tumors of approximately 100 mm^3 were injected, via the tail vein, with a ligand-liposome p53 complex using folate as the targeting ligand (LipF(B)-p53). This liposome complex was administered twice/week (to a total of 5 injections) along with the chemotherapeutic agent docetaxel at a dose of 10 mg/kg.

Assay [7] concerns DU145. Briefly: Chemosensitization, XTT cell proliferation assay. Format: cell-based. As to conditions: Homo sapiens, DU-145, drug alone on untransfected DU145 cells. As for the experimental part:
as §1, §2

For assay [8], the system named is JSQ-3. Description: Chemosensitization, XTT cell proliferation assay. The class given is cell-based. The note with it: Homo sapiens, drug alone on untransfected JSQ-3 cells. As for the experimental part:
In addition to radiation, chemotherapy is becoming more commonly used in the treatment of SCCHN. As lack of functional wtp53 has been associated with failure to respond to chemotherapy, in this example we examined the effect of ligand-facilitated liposome mediated wtp53 gene therapy on sensitization of SCCHN cell line JSQ-3 to chemotherapeutic agents. 1×10^4 cells were plated/well of a 96-well plate. 24 hours later, the cells were transfected with LipT(A)-p53. Two days after transfection, anti-neoplastic agents were added at increasing concentrations (in triplicate). 4-6 days later the XTT cell proliferation assay was performed and IC50 values, the drug concentration yielding 50% growth inhibition, calculated.
This example summarizes part of the in vitro p53-mediated chemosensitization experiments (XTT assays) performed on the cell lines for which transfection with transferrin-coupled or folate-coupled liposomes is described in Example 17. […] The chemosensitization effect is dependent upon the liposome used and the p53 DNA dose. VIN=vinblastine; DXR=doxorubicin; CDDP=cisplatin. Fold Sensitization is calculated from the individual IC50 values. […]
The ability of the LipF(B)-delivered AS-HER-2 to sensitize MDA-MB-435, JSQ-3, DU145 and U87 (Human glioblastoma) cells to chemotherapeutic agents was evaluated. Sensitivity was determined using the XTT cell proliferation assay. […]

As usually defined, the IC50 is the point on the concentration scale where inhibition reaches its midpoint. `Nc1ccn([C@@H]2O[C@H](CO)[C@@H](O)C2(F)F)c(=O)n1` [Gemzar, gemcitabine]: the “Outcome of control groups (single treatments)” value in assay [1] was “euthanized due to tumor burden by day 54”. The IC50 in assay [2] was found to be 1280 nM; in assay [3], 800 nM.
For `CC[C@]1(O)C[C@@H]2CN(CCc3c([nH]c4ccccc34)[C@@](C(=O)OC)(c3cc4c(cc3OC)N(C)[C@H]3[C@@](O)(C(=O)OC)[C@H](OC(C)=O)[C@]5(CC)C=CCN6CC[C@]43[C@@H]65)C2)C1` [Vln, vinblastine], the concentration for half-maximal inhibition (IC50) in assay [4] amounted to 1.81 nM.
Still for that read-out and setting: under `COc1cccc2c1C(=O)c1c(O)c3c(c(O)c1C2=O)C[C@@](O)(C(=O)CO)C[C@@H]3O[C@H]1C[C@H](N)[C@H](O)[C@H](C)O1` [DXR, doxorubicin] stands 270 nM.
For `CC(=O)O[C@@]12CO[C@@H]1C[C@H](O)[C@@]1(C)C(=O)[C@H](O)C3=C(C)[C@@H](OC(=O)[C@H](O)[C@@H](NC(=O)OC(C)(C)C)c4ccccc4)C[C@@](O)([C@@H](OC(=O)c4ccccc4)[C@H]21)C3(C)C` [Taxotere, docetaxel], the “Tumor growth, single treatment” value is reported as “some docetaxel effect” in assay [5] and “neither the LipF(B)-p53 complex alone, nor docetaxel alone had any substantial effect on tumor growth” in assay [6]. Also, the IC50 in assay [7] was found to be 42 nM; in assay [3], 11.5 nM.
Consider `CC(=O)O[C@H]1C(=O)[C@@]2(C)[C@H]([C@H](OC(=O)c3ccccc3)[C@]3(O)C[C@H](OC(=O)[C@H](O)[C@@H](NC(=O)c4ccccc4)c4ccccc4)C(C)=C1C3(C)C)[C@]1(OC(C)=O)CO[C@@H]1C[C@@H]2O` [Taxol], for which the IC50 came to 15.8 nM in assay [8], 13.2 nM in assay [7] and 52 nM in assay [4].

The values above are taken from patent US6749863B1, “Targeted liposome gene delivery” (Georgetown University, priority 1997, dated 2004).
